Assay results published in patent US5164513A, “Imidazole derivative” (SS Pharmaceutical Co., Ltd., priority 1987, dated 1992).
Converted amounts (≈) assume the structure as drawn.

Key:
Assay type in all cases: cell-based
[1] = test system: Cladosporium fulvum IAM 5006; test: Antimicrobial activity (MIC); conditions: Fulvia fulva, IAM5006
[2] = test system: Fusarium moniliforme IAM 5062; test: Antimicrobial activity (MIC); conditions: Fusarium verticillioides, IAM5062
[3] = test system: Gibberella fujikuroi IAM 8046; test: Antimicrobial activity (MIC); conditions: Fusarium fujikuroi, IAM8046
[4] = test system: Staphylococcus epidermidis ATCC 12228; test: Antimicrobial activity (MIC); conditions: ATCC12228
[5] = test system: Streptococcus faecalis IFO 12964; test: Antimicrobial activity (MIC); conditions: Enterococcus faecalis, IFO12964
[6] = test system: Aspergillus niger ATCC 9642; test: Antimicrobial activity (MIC); conditions: ATCC9642
[7] = test system: Saccharomyces cerevisiae ATCC 9763; test: Antimicrobial activity (MIC); conditions: ATCC9763
[8] = test system: Microsporum gypseum IFO 8231; test: Antimicrobial activity (MIC); conditions: Nannizzia gypsea, IFO8231
[9] = test system: Penicillium chrysogenum ATCC 6010; test: Antimicrobial activity (MIC); conditions: ATCC6010
[10] = test system: Bacillus subtilis ATCC 6633; test: Antimicrobial activity (MIC); conditions: ATCC6633
[11] = test system: Trichophyton mentagrophytes QM 248; test: Antimicrobial activity (MIC); conditions: QM248
[12] = test system: Staphylococcus aureus Smith; test: Antimicrobial activity (MIC)
[13] = test system: Staphylococcus aureus Terajima; test: Antimicrobial activity (MIC)
[14] = test system: Aspergillus oryzae IMF 4014; test: Antimicrobial activity (MIC); conditions: IMF4014
[15] = test system: Helminthosporium sesamum IAM 5012; test: Antimicrobial activity (MIC); conditions: IAM5012
[16] = test system: Micrococcus lysodeikticus IFO 3333; test: Antimicrobial activity (MIC); conditions: Micrococcus luteus, IFO3333
[17] = test system: Epidermophyton floccosum IFO 9045; test: Antimicrobial activity (MIC); conditions: IFO9045
[18] = test system: Candida albicans Yu-1200; test: Antimicrobial activity (MIC); conditions: YU1200
[19] = test system: Candida albicans NHL 4019; test: Antimicrobial activity (MIC); conditions: NHL4019
[20] = test system: Microsporum audounii IFO 6074; test: Antimicrobial activity (MIC); conditions: IFO6074
[21] = test system: Sarcina lutea ATCC 9341; test: Antimicrobial activity (MIC); conditions: Micrococcus luteus, ATCC9341
[22] = test system: Debaryomyces kloeckeri IFO 0015; test: Antimicrobial activity (MIC); conditions: IFO0015
[23] = test system: Trichophyton rubrum NHL J; test: Antimicrobial activity (MIC)
[24] = test system: Microsporum cookei IFO 8303; test: Antimicrobial activity (MIC); conditions: Paraphyton cookei, IFO8303
[25] = test system: Trichophyton tonsurans IFO 5928; test: Antimicrobial activity (MIC); conditions: IFO5928
[26] = test system: Pyricularia oryzae IAM 5016; test: microbe, parasite or virus in culture; conditions: IAM5016
[27] = test system: Trichophyton mentagrophytes IFO 5812; test: Antimicrobial activity (MIC); conditions: IFO5812
[28] = test system: Saccharomyces ruxii 6507; test: Antimicrobial activity (MIC)
[29] = test system: Staphylococcus aureus FDA 209P; test: Antimicrobial activity (MIC); conditions: FDA209P

| Compound | MIC [1] [µg/mL] | MIC [2] [µg/mL] | MIC [3] [µg/mL] | MIC [4] [µg/mL] | MIC [5] [µg/mL] | MIC [6] [µg/mL] | MIC [7] [µg/mL] | MIC [8] [µg/mL] | MIC [9] [µg/mL] | MIC [10] [µg/mL] | MIC [11] [µg/mL] | MIC [12] [µg/mL] | MIC [13] [µg/mL] | MIC [14] [µg/mL] | MIC [15] [µg/mL] | MIC [16] [µg/mL] | MIC [17] [µg/mL] | MIC [18] [µg/mL] | MIC [19] [µg/mL] | MIC [20] [µg/mL] | further results |
| --- | --- | --- | --- | --- | --- | --- | --- | --- | --- | --- | --- | --- | --- | --- | --- | --- | --- | --- | --- | --- | --- |
| CCCCCCCCOc1ccccc1C(C)(O)Cn1ccnc1 (stereo not shown) [Compound 8] | 0.78 (≈ 2.36 µM) | 3.12 (≈ 9.44 µM) | 0.78 (≈ 2.36 µM) | 0.39 (≈ 1.18 µM) | 6.25 (≈ 18.9 µM) | 0.025 (≈ 0.0756 µM) | 0.025 (≈ 0.0756 µM) | 0.006 (≈ 0.0182 µM) | 3.12 (≈ 9.44 µM) | 3.12 (≈ 9.44 µM) | 0.006 (≈ 0.0182 µM) | 3.12 (≈ 9.44 µM) | 3.12 (≈ 9.44 µM) | < 0.006 | < 0.006 | 1.56 (≈ 4.72 µM) | 0.1 (≈ 0.303 µM) | 12.5 (≈ 37.8 µM) | 12.5 (≈ 37.8 µM) | < 0.006 | MIC [21]: 0.2 µg/mL (≈ 0.605 µM); MIC [22]: 3.12 µg/mL (≈ 9.44 µM); MIC [23]: < 0.006 µg/mL; MIC [24]: 0.012 µg/mL (≈ 0.0363 µM); MIC [25]: < 0.006 µg/mL; MIC [26]: < 0.006 µg/mL; MIC [27]: < 0.006 µg/mL; MIC [28]: 0.39 µg/mL (≈ 1.18 µM); MIC [29]: 3.12 µg/mL (≈ 9.44 µM) |
| CCCCCCCCCOc1ccccc1C(C)(O)Cn1ccnc1 (stereo not shown) [Compound 59] | 1.56 (≈ 4.53 µM) | 6.25 (≈ 18.1 µM) | 1.56 (≈ 4.53 µM) | 1.56 (≈ 4.53 µM) | 6.25 (≈ 18.1 µM) | 0.1 (≈ 0.29 µM) | 12.5 (≈ 36.3 µM) | < 0.006 | 6.25 (≈ 18.1 µM) | 6.25 (≈ 18.1 µM) | < 0.006 | 6.25 (≈ 18.1 µM) | 6.25 (≈ 18.1 µM) | < 0.006 | < 0.006 | 1.56 (≈ 4.53 µM) | 0.2 (≈ 0.581 µM) | 25 (≈ 72.6 µM) | 12.5 (≈ 36.3 µM) | < 0.006 | MIC [21]: 0.05 µg/mL (≈ 0.145 µM); MIC [22]: 12.5 µg/mL (≈ 36.3 µM); MIC [23]: < 0.006 µg/mL; MIC [24]: 0.1 µg/mL (≈ 0.29 µM); MIC [25]: < 0.006 µg/mL; MIC [26]: < 0.006 µg/mL; MIC [27]: < 0.006 µg/mL; MIC [28]: 0.78 µg/mL (≈ 2.26 µM); MIC [29]: 6.25 µg/mL (≈ 18.1 µM) |
